Measured values reported in patent US8969080B2, “Remedy for the treatment of cardio-vascular diseases or disorders” (Max-Delbrueck-Centrum fuer Molekulare Medizin, priority 2007, dated 2015).

Legend:
mice = assay: AngII infusion by minipump in control, β-catenin depleted and β-catenin stabilized mice; type: in vivo, mouse
Method: After 12 days' AngII infusion at pressure doses (1.4 μg Kg^−1 min^−1), control animals developed hypertrophy as judged by echocardiography, gene regulation, in vivo cross sectional area, and heart/body weight ratio as described before (FIG. 4). From the M-mode echocardiography imaging, a thickened inter-ventricular septum and LV posterior wall after AngII was identified in control animals (FIG. 4A). […] LV wall thickening was identical in β-catenin heart-depleted animals and control littermates after AngII (data not shown). […] Moreover, AngII increased gene expression of several hypertrophy gene markers in both control and b-catenin heart-depleted animals with the exception of β-myosin heavy chain (FIG. 4 C). A lack of β-MHC upregulation in response to stress stimuli might be indicative of adaptive cardiac remodeling preserving LV-function as described before (van Rooij E et al., Circ Res. 2004; 94:18e-26).
The effects of 12 days' AngII infusion in mice with cardiac stabilized β-catenin (β-cat^Δex3) were opposite in kind to those of mice with β-catenin heart-depletion. […] ANP (β-cat^Δex3 0.4±0.15; β-cat^Δex3+AngII 1.03±0.15; p<0.01) and BNP (β-cat^Δex3 0.43±0.24; β-cat^Δex3+AngII 1.4±0.27; p<0.01) expression was induced by AngII but final values were generally lower than in control mice (ANP: CT+AngII 2.3±0.8; BNP: CT+AngII 2.6±0.6).
As expected, fractional shortening increased in control mice after AngII treatment (31.1±1.6% to 36.2±1.6%). However, β-catenin heart-stabilization led to reduced fractional shortening after AngII infusion (34.7±2.9% to 22.4±4.5%, p<0.05). These absolute values in animals aged 10 to 14 weeks are identical to a serial analysis of the age-dependant changes employing the same high-resolution echo techniques as used for these studies. […] These absolute values are similar to other reports, i.e. rates of apoptotic cardiomyocytes after trans-aortic constriction. Moreover, no significant differences concerning fibrosis occurring focally throughout the LV wall was observed when both transgenic models were to their respective controls.
Representative examples of M-mode echocardiograms (not shown), quantification of echocardiographic parameters and heart/body weight from control and β-cat^Δex3-6 mice with and without AngII infusion are shown (n≧6 for each group) (B) Myocyte cross-sectional area increases in both control and β-catenin depleted β-cat^Δex3-6 mice as measured by WGA-FITC staining of cardiac tissue sections and quantification from control or β-cat^Δex3-6 mice with AngII infusion (data not shown). At least 500 cells were measured for each animal, n≧4 mice per group. (C) Significant upregulation of ANP, BNP and α-sarcomeric actin normalized to GAPDH after AngII in control and β-catenin depleted β-cat^Δex3-6 mice. Quantification by real-time PCR of whole heart RNA samples from control (white) or β-cat^Δex3-6 (grey) mice without (open bars) and with (shaded bars) AngII infusion. *=P<0.05, **=P<0.01, ***=P<0.001.
(A) Attenuation of cardiac hypertrophy after AngII in β-catenin stabilized mice is accompanied by significant deterioration of systolic function as measured by fractional shortening (right bar graph). Representative examples of M-mode echocardiograms and quantification from control or β-cat^Δex3 mice with and without AngII infusion. Quantification of echocardiographic wall size and fractional shortening from control or β-cat^Δex3 mice with and without AngII infusion. *=P<0.05, **=P<0.01. (B) Increase of myocyte cross-sectional area after AngII is attenuated in β-catenin stabilized β-cat^Δex3 mice (data not shown). At least 400 cells counted per animal, mice per group. ***=P<0.001. (C) Rates of TUNEL/α-sarcomeric actin/DAPI-positive cardiomyocytes after AngII infusion decrease after β-catenin stabilization in β-cat^Δex3. In addition to the TUNEL-assay, slides were co-stained with α-sarcomeric actin and DAPI in control mice and β-cat^Δex3 mice before and after AngII stimulation (data not shown).

[1] = test system: β-catenin dependent transcription; assay: topflash reporter gene assay in isolated neonatal rat cardiomyocytes; type: cell-based; settings: co-transfection of KLF15; reporter activated by stabilized β-catenin (ΔN-catenin)
Method: (§1) The transcription factor Krüppel-like factor (KLF) 15 inhibits β-catenin dependent transcription in isolated cardiomyocytes through a direct interaction of its C-terminal end as shown by topflash reporter gene assay and immunoprecipitation assays (FIG. 9 A). Isolated neonatal rat cardiomyocytes were used as a model system to analyze factors inhibiting β-catenin dependent gene regulation. β-catenin dependent transcription was measured by reporter gene assay. […] Concerning the molecular mechanisms, KLF15 mutants were analyzed concerning their direct protein interaction to β-catenin employing immunoprecipitation analysis (FIG. 9 B). The interacting domain was mapped to the N-terminus between amino acids 1 and 45 (FIG. 9 B), where as the C-terminus was also required for the transcriptional repressive function.
(§2) Inhibition of β-catenin-dependent gene transcription by KLF15. (A) Reporter gene assay in isolated neonatal cardiomyocytes showing activation of the topflash reporter gene by stabilized β-catenin (ΔN-catenin; dN). A dose-dependent inhibition is observed by co-transfection of KLF15.

β-catenin = molecular target: T1, β-catenin (Homo sapiens, UniProt P35222); assay: co-immunoprecipitation of KLF15 and KLF15 mutants with β-catenin; type: binding; settings: full length KLF15
T1 sequence (P35222 1-781): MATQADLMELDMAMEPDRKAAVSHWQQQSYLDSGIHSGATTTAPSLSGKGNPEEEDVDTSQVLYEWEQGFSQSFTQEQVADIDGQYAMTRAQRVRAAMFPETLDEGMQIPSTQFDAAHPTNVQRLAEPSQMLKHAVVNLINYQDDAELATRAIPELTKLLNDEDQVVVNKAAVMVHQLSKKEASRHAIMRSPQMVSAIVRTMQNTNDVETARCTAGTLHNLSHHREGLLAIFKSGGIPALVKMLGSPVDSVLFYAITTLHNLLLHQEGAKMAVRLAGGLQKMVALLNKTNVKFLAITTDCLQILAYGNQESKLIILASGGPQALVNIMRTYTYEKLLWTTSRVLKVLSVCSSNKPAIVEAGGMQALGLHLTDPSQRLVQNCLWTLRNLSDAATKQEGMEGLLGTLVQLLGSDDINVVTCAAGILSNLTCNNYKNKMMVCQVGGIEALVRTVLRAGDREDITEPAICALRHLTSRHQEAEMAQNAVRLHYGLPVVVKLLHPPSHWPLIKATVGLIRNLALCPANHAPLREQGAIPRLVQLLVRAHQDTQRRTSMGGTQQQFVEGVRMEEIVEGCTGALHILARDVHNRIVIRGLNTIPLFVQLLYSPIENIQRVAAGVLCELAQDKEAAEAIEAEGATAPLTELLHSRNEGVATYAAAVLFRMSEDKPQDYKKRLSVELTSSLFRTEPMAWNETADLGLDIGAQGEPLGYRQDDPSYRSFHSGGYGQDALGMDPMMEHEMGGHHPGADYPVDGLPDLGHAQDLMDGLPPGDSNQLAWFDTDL
Method: as §1, §2

direct protein interaction to β-catenin (immunoprecipitation) (β-catenin) | Substance | cardiomyocyte size following AngII treatment (mice; CT animals of the β-catenin stabilization model) | TUNEL-positive cells after AngII (mice; CT of the β-catenin depletion model, baseline 0.004±0.004) | ANP expression (mice; CT+AngII) | BNP expression (mice; CT+AngII) | TUNEL/α-sarcomeric actin/DAPI-positive cells after AngII (mice; CT+AngII, β-catenin stabilization model) | Axin2 levels (whole heart RNA) (mice; both control and β-catenin stabilized mice) | cellular cross sectional area (mice; control mice of the β-catenin depletion model, after 12 days' AngII infusion) | fractional shortening after AngII (mice; control mice, baseline 31.1±1.6%) | Tbx5 gene expression (mice; control mice, effect lost in β-catenin stabilized mice) | ANP expression (mice; β-cat^Δex3+AngII, baseline 0.4±0.15) | BNP expression (mice; β-cat^Δex3+AngII, baseline 0.43±0.24) | TUNEL-positive cells after AngII (mice; β-cat^Δex3-6 mice, baseline 0.112±0.044%) | cardiomyocyte size following AngII treatment (mice; β-cat^Δex3 mice) | TUNEL/α-sarcomeric actin/DAPI-positive cells after AngII (mice; β-cat^Δex3 mice, baseline 0.058±0.027%) | cellular cross sectional area (mice; β-catenin depleted mice (β-cat^Δex3-6), after 12 days' AngII infusion 1.4 μg Kg^−1 min^−1) | fractional shortening after AngII (mice; β-catenin heart-stabilized mice, baseline 34.7±2.9%) | topflash reporter gene activation [1]
– | Angiotensin II (DRVYIHPF; Angiotensin-2; UniProt P01019 25-32, looked up) [AngII, hypertrophic stress stimulus infused by minipump] | 9.07×10^7±0.14×10^7 | 0.09±0.02% | 2.3±0.8 | 2.6±0.6 | 0.297±0.025% | increased | 12.3×10^7±0.19×10^7 a.u. | 36.2±1.6% | significantly downregulated | 1.03±0.15 | 1.4±0.27 | 0.2±0.13% | 8.14×10^7±0.14×10^7 | 0.120±0.049% | 12.1×10^7±0.24×10^7 a.u. | 22.4±4.5% | –
interaction | KLF15: transcription factor Krüppel-like factor 15, co-transfected; inhibits β-catenin dependent transcription | – | – | – | – | – | – | – | – | – | – | – | – | – | – | – | – | inhibit topflash reporter gene activation dose dependendly
